Measured values taken from patent US20080051466A1, “Isoalpha acid based protein kinase modulation cancer treatment” (Metaproteomics, LLC, priority 2006, published 2008).

Assays:
Experiment in all cases: KinaseProfiler Assay
Assay type in all cases: biochemical
Bmx = Bmx (Homo sapiens, UniProt P51813); conditions: 25 ug/ml; read-out: Bmx, % of Control
CaMKI = CaMKI (Homo sapiens, UniProt Q14012); conditions: read-out: CaMKI, % of Control
CDK2/cyclinA = CDK2/cyclinA (Homo sapiens, UniProt P24941); conditions: read-out: CDK2/cyclinA, % of Control
IGF-1R = IGF-1R (Homo sapiens, UniProt P08069); conditions: read-out: IGF-1R, % of Control
MAPK1 = MAPK1 (Homo sapiens, UniProt P27361); conditions: read-out: MAPK1, % of Control
MAPKAP-K2 = MAPKAP-K2 (Homo sapiens, UniProt P49137); conditions: read-out: MAPKAP-K2, % of Control
MINK = MINK (Homo sapiens, UniProt Q8N4C8); conditions: read-out: MINK, % of Control
MSK2 = MSK2 (Homo sapiens, UniProt O75676); conditions: read-out: MSK2, % of Control
p70S6K = p70S6K (Homo sapiens, UniProt P23443); conditions: read-out: p70S6K, % of Control
PAK3 = PAK3 (Homo sapiens, UniProt O75914); conditions: read-out: PAK3, % of Control
PKBγ = PKBγ (Homo sapiens, UniProt Q9Y243); conditions: read-out: PKBγ, % of Control
PKCβII = PKCβII (Homo sapiens, UniProt P05771); conditions: read-out: PKCβII, % of Control
TBK1 = molecular target: T1, TBK1 (Homo sapiens, UniProt Q9UHD2); conditions: read-out: TBK1, % of Control
T1 sequence (Q9UHD2 1-729): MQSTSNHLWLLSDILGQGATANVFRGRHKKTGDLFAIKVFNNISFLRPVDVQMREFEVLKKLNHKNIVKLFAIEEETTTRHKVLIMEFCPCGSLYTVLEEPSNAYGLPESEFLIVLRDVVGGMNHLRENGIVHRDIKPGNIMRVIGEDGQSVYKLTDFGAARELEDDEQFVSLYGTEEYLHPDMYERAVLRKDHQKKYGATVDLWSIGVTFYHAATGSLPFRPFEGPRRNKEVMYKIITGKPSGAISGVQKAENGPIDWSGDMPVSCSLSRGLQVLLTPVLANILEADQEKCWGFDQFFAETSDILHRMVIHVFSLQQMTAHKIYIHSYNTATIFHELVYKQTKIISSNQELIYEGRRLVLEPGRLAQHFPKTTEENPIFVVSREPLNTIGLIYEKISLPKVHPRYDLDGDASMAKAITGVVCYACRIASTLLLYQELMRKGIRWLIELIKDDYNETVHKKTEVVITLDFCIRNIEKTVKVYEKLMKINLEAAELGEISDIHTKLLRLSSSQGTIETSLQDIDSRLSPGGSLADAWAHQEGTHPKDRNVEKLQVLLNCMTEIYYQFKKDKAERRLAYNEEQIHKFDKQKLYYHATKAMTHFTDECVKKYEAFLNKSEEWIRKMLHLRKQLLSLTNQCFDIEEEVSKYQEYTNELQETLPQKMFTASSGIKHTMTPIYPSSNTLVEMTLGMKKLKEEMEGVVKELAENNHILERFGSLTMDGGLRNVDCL

TrkA = TrkA (Homo sapiens, UniProt P04629); conditions: read-out: TrkA, % of Control
ZIPK = ZIPK (Homo sapiens, UniProt O43293); conditions: read-out: ZIPK, % of Control
CK1γ1 = CK1γ1 (Homo sapiens, UniProt Q9HCP0); conditions: read-out: CK1γ1, % of Control
cKit(D816H) = cKit(D816H) (Homo sapiens, UniProt P10721, D816H); conditions: read-out: cKit(D816H), % of Control
Sequence of cKit(D816H) (P10721 26-976 D816H): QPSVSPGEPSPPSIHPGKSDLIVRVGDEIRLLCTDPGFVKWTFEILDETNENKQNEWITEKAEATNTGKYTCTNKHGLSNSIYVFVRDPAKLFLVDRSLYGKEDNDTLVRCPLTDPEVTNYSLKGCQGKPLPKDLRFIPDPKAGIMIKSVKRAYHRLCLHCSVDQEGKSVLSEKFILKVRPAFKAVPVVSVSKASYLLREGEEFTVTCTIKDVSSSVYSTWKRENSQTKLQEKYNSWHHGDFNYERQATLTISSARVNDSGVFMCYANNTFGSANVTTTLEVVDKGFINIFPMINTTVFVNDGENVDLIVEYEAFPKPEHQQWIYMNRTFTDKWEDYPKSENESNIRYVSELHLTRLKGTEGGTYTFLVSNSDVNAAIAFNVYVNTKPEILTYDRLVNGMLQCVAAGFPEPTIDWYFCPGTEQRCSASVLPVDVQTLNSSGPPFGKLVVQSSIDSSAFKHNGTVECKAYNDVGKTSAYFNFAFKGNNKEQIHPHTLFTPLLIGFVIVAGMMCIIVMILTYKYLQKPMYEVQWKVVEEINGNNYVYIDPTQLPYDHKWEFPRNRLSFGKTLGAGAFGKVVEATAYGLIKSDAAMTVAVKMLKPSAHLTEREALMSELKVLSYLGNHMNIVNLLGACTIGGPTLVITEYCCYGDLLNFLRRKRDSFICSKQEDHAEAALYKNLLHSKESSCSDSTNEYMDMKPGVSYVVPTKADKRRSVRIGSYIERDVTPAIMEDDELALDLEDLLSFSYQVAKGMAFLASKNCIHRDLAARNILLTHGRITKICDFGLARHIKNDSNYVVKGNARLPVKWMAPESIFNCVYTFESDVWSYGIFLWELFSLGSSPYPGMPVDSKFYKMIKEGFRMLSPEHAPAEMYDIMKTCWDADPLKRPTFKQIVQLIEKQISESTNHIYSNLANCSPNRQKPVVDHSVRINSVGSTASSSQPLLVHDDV

Sequence of PKBγ (Q9Y243 whole entry): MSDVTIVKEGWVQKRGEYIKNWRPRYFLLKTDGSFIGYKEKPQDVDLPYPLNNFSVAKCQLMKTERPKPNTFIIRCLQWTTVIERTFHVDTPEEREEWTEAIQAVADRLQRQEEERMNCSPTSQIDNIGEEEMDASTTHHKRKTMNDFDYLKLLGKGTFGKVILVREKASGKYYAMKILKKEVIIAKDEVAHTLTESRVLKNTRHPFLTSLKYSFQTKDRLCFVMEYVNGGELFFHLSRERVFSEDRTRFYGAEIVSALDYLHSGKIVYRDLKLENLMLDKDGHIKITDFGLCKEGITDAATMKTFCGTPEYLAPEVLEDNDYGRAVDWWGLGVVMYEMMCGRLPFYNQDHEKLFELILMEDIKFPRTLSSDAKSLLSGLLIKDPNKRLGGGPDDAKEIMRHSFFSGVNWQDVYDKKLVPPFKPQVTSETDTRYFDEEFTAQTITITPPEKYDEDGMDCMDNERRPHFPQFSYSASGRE
Sequence of MSK2 (O75676 whole entry): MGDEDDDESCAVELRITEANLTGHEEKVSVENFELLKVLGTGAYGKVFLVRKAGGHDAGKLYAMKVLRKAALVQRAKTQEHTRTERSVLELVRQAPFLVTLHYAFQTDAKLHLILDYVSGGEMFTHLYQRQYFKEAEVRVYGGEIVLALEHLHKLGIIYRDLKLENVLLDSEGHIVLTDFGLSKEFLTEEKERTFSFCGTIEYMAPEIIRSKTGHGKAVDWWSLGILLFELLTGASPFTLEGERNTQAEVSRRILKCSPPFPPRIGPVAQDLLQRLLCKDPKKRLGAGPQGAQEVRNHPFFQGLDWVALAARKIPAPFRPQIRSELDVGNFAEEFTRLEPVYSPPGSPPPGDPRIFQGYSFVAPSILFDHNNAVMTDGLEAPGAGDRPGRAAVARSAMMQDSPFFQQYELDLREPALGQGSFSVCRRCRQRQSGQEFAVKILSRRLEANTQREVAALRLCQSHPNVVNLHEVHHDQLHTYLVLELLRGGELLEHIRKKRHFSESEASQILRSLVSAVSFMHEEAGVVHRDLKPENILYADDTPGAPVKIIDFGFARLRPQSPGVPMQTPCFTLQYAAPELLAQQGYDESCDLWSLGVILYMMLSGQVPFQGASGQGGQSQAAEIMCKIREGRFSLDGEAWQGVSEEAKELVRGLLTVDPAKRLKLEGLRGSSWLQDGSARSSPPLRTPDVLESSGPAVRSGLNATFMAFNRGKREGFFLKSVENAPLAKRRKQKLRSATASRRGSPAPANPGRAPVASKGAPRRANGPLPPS
Sequence of PKCβII (P05771 1-673 isoform P05771-2): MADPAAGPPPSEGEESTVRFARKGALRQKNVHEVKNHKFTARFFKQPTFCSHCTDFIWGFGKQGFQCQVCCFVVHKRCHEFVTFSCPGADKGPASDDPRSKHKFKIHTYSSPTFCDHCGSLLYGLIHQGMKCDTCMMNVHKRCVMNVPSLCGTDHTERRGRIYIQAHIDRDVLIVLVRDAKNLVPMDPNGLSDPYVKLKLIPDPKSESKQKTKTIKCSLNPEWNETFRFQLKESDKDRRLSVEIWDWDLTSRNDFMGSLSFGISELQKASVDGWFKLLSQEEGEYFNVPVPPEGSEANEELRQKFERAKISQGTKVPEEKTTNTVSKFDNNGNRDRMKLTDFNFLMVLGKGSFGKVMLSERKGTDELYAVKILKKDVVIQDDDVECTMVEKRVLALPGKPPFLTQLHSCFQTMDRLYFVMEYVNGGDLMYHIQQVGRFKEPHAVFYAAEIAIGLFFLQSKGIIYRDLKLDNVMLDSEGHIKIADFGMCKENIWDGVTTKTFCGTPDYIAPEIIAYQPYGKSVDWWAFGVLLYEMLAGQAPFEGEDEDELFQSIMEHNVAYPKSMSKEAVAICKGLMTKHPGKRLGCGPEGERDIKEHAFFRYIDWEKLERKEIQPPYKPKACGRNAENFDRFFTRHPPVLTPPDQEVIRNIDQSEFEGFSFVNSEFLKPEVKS
Sequence of PAK3 (O75914 whole entry): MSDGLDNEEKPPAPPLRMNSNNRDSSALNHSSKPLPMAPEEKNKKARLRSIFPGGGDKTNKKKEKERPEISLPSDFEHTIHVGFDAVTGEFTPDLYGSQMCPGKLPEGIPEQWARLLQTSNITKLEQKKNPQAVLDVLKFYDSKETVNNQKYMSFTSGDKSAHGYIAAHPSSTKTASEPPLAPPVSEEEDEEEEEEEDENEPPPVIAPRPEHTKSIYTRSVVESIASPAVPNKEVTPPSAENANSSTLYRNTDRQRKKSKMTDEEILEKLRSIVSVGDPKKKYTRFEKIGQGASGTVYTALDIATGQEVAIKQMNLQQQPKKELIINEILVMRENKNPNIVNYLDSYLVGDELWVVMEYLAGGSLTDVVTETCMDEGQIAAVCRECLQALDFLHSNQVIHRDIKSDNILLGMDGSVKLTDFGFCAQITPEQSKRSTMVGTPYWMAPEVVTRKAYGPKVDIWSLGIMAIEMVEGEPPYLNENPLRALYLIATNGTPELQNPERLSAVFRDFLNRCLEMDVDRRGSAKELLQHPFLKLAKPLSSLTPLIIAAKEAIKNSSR
Sequence of ZIPK (O43293 whole entry): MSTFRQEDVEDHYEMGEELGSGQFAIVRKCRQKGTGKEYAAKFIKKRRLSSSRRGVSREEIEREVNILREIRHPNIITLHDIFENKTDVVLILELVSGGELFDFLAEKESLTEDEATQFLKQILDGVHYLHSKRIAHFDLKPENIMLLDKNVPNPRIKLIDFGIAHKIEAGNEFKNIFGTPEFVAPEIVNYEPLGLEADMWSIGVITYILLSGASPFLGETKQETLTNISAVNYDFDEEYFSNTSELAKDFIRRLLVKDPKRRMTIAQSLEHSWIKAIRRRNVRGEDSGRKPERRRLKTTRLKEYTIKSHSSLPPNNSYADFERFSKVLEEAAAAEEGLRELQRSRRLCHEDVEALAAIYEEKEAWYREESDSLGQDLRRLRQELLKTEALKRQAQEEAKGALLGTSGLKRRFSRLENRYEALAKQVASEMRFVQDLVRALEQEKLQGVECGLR
Sequence of MAPK1 (P27361 whole entry): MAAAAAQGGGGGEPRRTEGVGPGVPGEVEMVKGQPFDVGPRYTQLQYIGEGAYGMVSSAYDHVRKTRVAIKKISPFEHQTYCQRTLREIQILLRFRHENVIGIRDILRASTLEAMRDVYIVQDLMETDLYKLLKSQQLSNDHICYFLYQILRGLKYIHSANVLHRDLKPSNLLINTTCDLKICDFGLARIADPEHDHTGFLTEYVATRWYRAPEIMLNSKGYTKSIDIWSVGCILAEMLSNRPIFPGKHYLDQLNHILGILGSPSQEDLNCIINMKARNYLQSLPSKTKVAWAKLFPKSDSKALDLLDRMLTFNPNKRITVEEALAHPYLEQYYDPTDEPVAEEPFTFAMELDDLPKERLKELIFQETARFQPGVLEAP
Sequence of TrkA (P04629 33-796): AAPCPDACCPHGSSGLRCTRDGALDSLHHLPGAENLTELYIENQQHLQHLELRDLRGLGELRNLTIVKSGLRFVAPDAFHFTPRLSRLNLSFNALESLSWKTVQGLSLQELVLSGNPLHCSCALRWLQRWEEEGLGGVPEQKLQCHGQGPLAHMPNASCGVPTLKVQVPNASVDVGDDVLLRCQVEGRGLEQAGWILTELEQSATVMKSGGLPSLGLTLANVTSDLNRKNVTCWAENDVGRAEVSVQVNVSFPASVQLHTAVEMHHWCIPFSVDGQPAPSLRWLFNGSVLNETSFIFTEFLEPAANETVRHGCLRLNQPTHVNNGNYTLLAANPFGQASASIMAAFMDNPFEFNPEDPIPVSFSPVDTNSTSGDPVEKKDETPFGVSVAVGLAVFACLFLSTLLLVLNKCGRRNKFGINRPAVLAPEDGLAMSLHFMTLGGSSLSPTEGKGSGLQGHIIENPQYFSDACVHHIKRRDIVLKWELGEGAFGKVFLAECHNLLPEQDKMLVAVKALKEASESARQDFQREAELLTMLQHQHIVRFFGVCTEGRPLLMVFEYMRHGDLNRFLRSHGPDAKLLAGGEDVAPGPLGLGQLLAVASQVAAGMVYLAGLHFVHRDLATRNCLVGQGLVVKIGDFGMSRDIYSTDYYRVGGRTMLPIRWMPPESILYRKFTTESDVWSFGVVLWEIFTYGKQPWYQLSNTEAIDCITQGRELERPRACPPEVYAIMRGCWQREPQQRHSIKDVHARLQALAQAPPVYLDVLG

COc1cc(O)c(CC=C(C)C)c(O)c1C(=O)/C=C/c1ccc(O)cc1 [Xanthohumol, xanthohumol]
remaining activity at 25 µg/mL (Bmx): 22% | remaining activity at 1 µg/mL (CaMKI; 1 ug/ml): 142% | remaining activity at 25 µg/mL (CaMKI; 25 ug/ml): 3% | remaining activity at 1 µg/mL (CDK2/cyclinA; 1 ug/ml): 107% | remaining activity at 5 µg/mL (CDK2/cyclinA; 5 ug/ml): 96% | remaining activity at 25 µg/mL (CDK2/cyclinA; 25 ug/ml): 57% | remaining activity at 50 µg/mL (CDK2/cyclinA; 50 ug/ml): 6% | remaining activity at 25 µg/mL (IGF-1R; 25 ug/ml): 129% | remaining activity at 50 µg/mL (IGF-1R; 50 ug/ml): 139% | remaining activity at 5 µg/mL (MAPK1; 5 ug/ml): 64% | remaining activity at 25 µg/mL (MAPK1; 25 ug/ml): 19% | remaining activity at 50 µg/mL (MAPK1; 50 ug/ml): 17% | remaining activity at 1 µg/mL (MAPKAP-K2; 1 ug/ml): 99% | remaining activity at 5 µg/mL (MAPKAP-K2; 5 ug/ml): 95% | remaining activity at 25 µg/mL (MAPKAP-K2; 25 ug/ml): 6% | remaining activity at 50 µg/mL (MAPKAP-K2; 50 ug/ml): 8% | remaining activity at 1 µg/mL (MINK; 1 ug/ml): 42% | remaining activity at 5 µg/mL (MINK; 5 ug/ml): 10% | remaining activity at 25 µg/mL (MINK; 25 ug/ml): 5% | remaining activity at 50 µg/mL (MINK; 50 ug/ml): 7% | remaining activity at 1 µg/mL (MSK2; 1 ug/ml): 126% | remaining activity at 5 µg/mL (MSK2; 5 ug/ml): 61% | remaining activity at 25 µg/mL (MSK2; 25 ug/ml): 8% | remaining activity at 50 µg/mL (MSK2; 50 ug/ml): 19% | remaining activity at 1 µg/mL (p70S6K; 1 ug/ml): 94% | remaining activity at 5 µg/mL (p70S6K; 5 ug/ml): 48% | remaining activity at 25 µg/mL (p70S6K; 25 ug/ml): 19% | remaining activity at 50 µg/mL (p70S6K; 50 ug/ml): 7% | remaining activity at 1 µg/mL (PAK3; 1 ug/ml): 21% | remaining activity at 5 µg/mL (PAK3; 5 ug/ml): 18% | remaining activity at 25 µg/mL (PAK3; 25 ug/ml): 8% | remaining activity at 1 µg/mL (PKBγ; 1 ug/ml): 104% | remaining activity at 5 µg/mL (PKBγ; 5 ug/ml): 104% | remaining activity at 25 µg/mL (PKBγ; 25 ug/ml): 12% | remaining activity at 1 µg/mL (PKCβII; 1 ug/ml): 108% | remaining activity at 5 µg/mL (PKCβII; 5 ug/ml): 108% | remaining activity at 25 µg/mL (PKCβII; 25 ug/ml): 71% | remaining activity at 50 µg/mL (PKCβII; 50 ug/ml): 79% | remaining activity at 1 µg/mL (TBK1; 1 ug/ml): 104% | remaining activity at 5 µg/mL (TBK1; 5 ug/ml): 71% | remaining activity at 25 µg/mL (TBK1; 25 ug/ml): 45% | remaining activity at 50 µg/mL (TBK1; 50 ug/ml): 42% | remaining activity at 1 µg/mL (TrkA; 1 ug/ml): 36% | remaining activity at 5 µg/mL (TrkA; 5 ug/ml): 19% | remaining activity at 25 µg/mL (TrkA; 25 ug/ml): 8% | remaining activity at 50 µg/mL (TrkA; 50 ug/ml): 3% | remaining activity at 1 µg/mL (ZIPK; 1 ug/ml): 115% | remaining activity at 5 µg/mL (ZIPK; 5 ug/ml): 74% | remaining activity at 25 µg/mL (ZIPK; 25 ug/ml): 20% | remaining activity at 50 µg/mL (ZIPK; 50 ug/ml): 70% | remaining activity at 1 µg/mL (CK1γ1; 1 ug/ml): 101% | remaining activity at 5 µg/mL (CK1γ1; 5 ug/ml): 79% | remaining activity at 25 µg/mL (CK1γ1; 25 ug/ml): 50% | remaining activity at 50 µg/mL (CK1γ1; 50 ug/ml): 26% | remaining activity at 1 µg/mL (cKit(D816H); 1 ug/ml): 94% | remaining activity at 5 µg/mL (cKit(D816H); 5 ug/ml): 45% | remaining activity at 25 µg/mL (cKit(D816H); 25 ug/ml): 14%
